# In ChEMBL document CHEMBL1201862, “PubChem BioAssay data set” (2004):
#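 Results reflect a 48-hour exposure of cells in 96-well plates to compound at five concentrations. GI50 = concentration required for 50% inhibition of growth.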 The source made the active and inactive calls. Rule as the data show it: active = GI50 up to about 1.1 µM and inactive = higher.
# Key:
# Experiment in all cases: NCI tumour cell line growth inhibition, 48 h
# UACC-257 = test system: UACC-257
# A498 = test system: A498
# RXF 631 = test system: RXF 631
# RPMI-8226 = test system: RPMI-8226
# MOLT-4 = test system: MOLT-4
# Malme-3M = test system: Malme-3M
# HL-60 = test system: HL-60
# OVCAR-3 = test system: OVCAR-3
# DMS-273 = test system: DMS-273
# SR = test system: SR
# SNB-78 = test system: SNB-78
# HT-29 = test system: HT-29
# M19-MEL = test system: M19-MEL
# K562 = test system: K562
# XF498 = test system: XF498
# SF-539 = test system: SF-539
# OVCAR-4 = test system: OVCAR-4
# NCI-H226 = test system: NCI-H226
# U-251 = test system: U-251
# IGROV-1 = test system: IGROV-1
# UO-31 = test system: UO-31
# HOP-18 = test system: HOP-18
# HCT-116 = test system: HCT-116
# KM-20L2 = test system: KM-20L2
# SK-MEL-2 = test system: SK-MEL-2
# DMS-114 = test system: DMS-114
# LXFL 529 = test system: LXFL 529
# KM12 = test system: KM12
# SK-OV-3 = test system: SK-OV-3
# HCC 2998 = test system: HCC 2998
# RXF 393 = test system: RXF 393
# HOP-92 = test system: HOP-92
# OVCAR-5 = test system: OVCAR-5
# 786-0 = test system: 786-0
# SF-295 = test system: SF-295
# NCI-H522 = test system: NCI-H522
# HOP-62 = test system: HOP-62
# NCI-H460 = test system: NCI-H460
# HCT-15 = test system: HCT-15
# M14 = test system: M14
# OVCAR-8 = test system: OVCAR-8
# SNB-19 = test system: SNB-19
# SN12C = test system: SN12C
# SNB-75 = test system: SNB-75
# DLD-1 = test system: DLD-1
# SW-620 = test system: SW-620
# ACHN = test system: ACHN
# SK-MEL-5 = test system: SK-MEL-5
# TK-10 = test system: TK-10
# UACC-62 = test system: UACC-62
# COLO 205 = test system: COLO 205
# A549 = test system: A549
# EKVX = test system: EKVX
# NCI-H23 = test system: NCI-H23
# SF-268 = test system: SF-268
# LOX IMVI = test system: LOX IMVI
# SK-MEL-28 = test system: SK-MEL-28
# CAKI-1 = test system: CAKI-1
# CCRF-CEM = test system: CCRF-CEM
structure (smiles),measurement,setting,value
C[n+]1c2ccccc2c(NC(CCC(N)=O)C(=O)O)c2ccccc21 (centres undefined),GI50,UACC-257,> 100 µM (inactive)
same,GI50,A498,> 100 µM (inactive)
same,GI50,RXF 631,> 100 µM (inactive)
same,GI50,RPMI-8226,21 µM (inactive)
same,GI50,MOLT-4,> 100 µM (inactive)
same,GI50,Malme-3M,> 100 µM (inactive)
same,GI50,HL-60,> 100 µM (inactive)
same,GI50,OVCAR-3,> 100 µM (inactive)
same,GI50,DMS-273,> 100 µM (inactive)
same,GI50,SR,> 100 µM (inactive)
same,GI50,SNB-78,> 100 µM (inactive)
same,GI50,HT-29,> 100 µM (inactive)
same,GI50,M19-MEL,> 100 µM (inactive)
same,GI50,K562,> 100 µM (inactive)
same,GI50,XF498,> 100 µM (inactive)
same,GI50,SF-539,> 100 µM (inactive)
same,GI50,OVCAR-4,> 100 µM (inactive)
same,GI50,NCI-H226,> 100 µM (inactive)
same,GI50,U-251,> 100 µM (inactive)
same,GI50,IGROV-1,> 100 µM (inactive)
same,GI50,UO-31,> 100 µM (inactive)
same,GI50,HOP-18,> 100 µM (inactive)
same,GI50,HCT-116,> 100 µM (inactive)
same,GI50,KM-20L2,> 100 µM (inactive)
same,GI50,SK-MEL-2,> 100 µM (inactive)
same,GI50,DMS-114,> 100 µM (inactive)
same,GI50,LXFL 529,> 100 µM (inactive)
same,GI50,KM12,73.5 µM (inactive)
same,GI50,SK-OV-3,> 100 µM (inactive)
same,GI50,HCC 2998,> 100 µM (inactive)
same,GI50,RXF 393,> 100 µM (inactive)
same,GI50,HOP-92,> 100 µM (inactive)
same,GI50,OVCAR-5,> 100 µM (inactive)
same,GI50,786-0,> 100 µM (inactive)
same,GI50,SF-295,> 100 µM (inactive)
same,GI50,NCI-H522,> 100 µM (inactive)
same,GI50,HOP-62,> 100 µM (inactive)
same,GI50,NCI-H460,> 100 µM (inactive)
same,GI50,HCT-15,> 100 µM
same,GI50,M14,> 100 µM (inactive)
same,GI50,OVCAR-8,> 100 µM (inactive)
same,GI50,SNB-19,> 100 µM (inactive)
same,GI50,SN12C,> 100 µM (inactive)
same,GI50,SNB-75,> 100 µM (inactive)
same,GI50,DLD-1,> 100 µM (inactive)
same,GI50,SW-620,> 100 µM (inactive)
same,GI50,ACHN,> 100 µM (inactive)
same,GI50,SK-MEL-5,> 100 µM (inactive)
same,GI50,TK-10,> 100 µM (inactive)
same,GI50,UACC-62,> 100 µM (inactive)
same,GI50,COLO 205,> 100 µM (inactive)
same,GI50,A549,> 100 µM (inactive)
same,GI50,EKVX,> 100 µM (inactive)
same,GI50,NCI-H23,> 100 µM (inactive)
same,GI50,SF-268,> 100 µM (inactive)
O=c1/c(=C/c2ccccc2[N+](=O)[O-])sc2nc3ccccc3n12,GI50,UACC-257,34.8 µM (inactive)
same,GI50,A498,17.3 µM (inactive)
same,GI50,RXF 631,17.5 µM (inactive)
same,GI50,RPMI-8226,12.6 µM (inactive)
same,GI50,MOLT-4,> 46.1 µM (inactive)
same,GI50,Malme-3M,42.2 µM (inactive)
same,GI50,HL-60,41.1 µM (inactive)
same,GI50,OVCAR-3,> 31.6 µM (inactive)
same,GI50,DMS-273,20 µM (inactive)
same,GI50,SR,12.2 µM (inactive)
same,GI50,SNB-78,23.1 µM (inactive)
same,GI50,HT-29,> 46.5 µM (inactive)
same,GI50,M19-MEL,28.6 µM (inactive)
same,GI50,K562,40.8 µM (inactive)
same,GI50,XF498,16 µM (inactive)
same,GI50,SF-539,19.5 µM (inactive)
same,GI50,OVCAR-4,> 46.5 µM (inactive)
same,GI50,NCI-H226,22.9 µM (inactive)
same,GI50,LOX IMVI,17.1 µM (inactive)
same,GI50,U-251,19.9 µM (inactive)
same,GI50,IGROV-1,30.5 µM (inactive)
same,GI50,UO-31,> 46.5 µM (inactive)
same,GI50,HOP-18,44.6 µM (inactive)
same,GI50,SK-MEL-28,> 46.5 µM (inactive)
same,GI50,HCT-116,21.7 µM (inactive)
same,GI50,KM-20L2,> 100 µM (inactive)
same,GI50,SK-MEL-2,20.4 µM (inactive)
same,GI50,DMS-114,16.3 µM (inactive)
same,GI50,LXFL 529,33.4 µM (inactive)
same,GI50,KM12,34.7 µM (inactive)
same,GI50,SK-OV-3,> 31.6 µM (inactive)
same,GI50,HCC 2998,30.8 µM (inactive)
same,GI50,RXF 393,28.3 µM (inactive)
same,GI50,HOP-92,32.1 µM (inactive)
same,GI50,OVCAR-5,> 46.5 µM (inactive)
same,GI50,786-0,24.5 µM (inactive)
same,GI50,SF-295,18.8 µM (inactive)
same,GI50,NCI-H522,35.4 µM (inactive)
same,GI50,HOP-62,42.4 µM (inactive)
same,GI50,NCI-H460,37.8 µM (inactive)
same,GI50,HCT-15,17 µM
same,GI50,M14,39.7 µM (inactive)
same,GI50,CAKI-1,> 73.1 µM (inactive)
same,GI50,OVCAR-8,38.9 µM (inactive)
same,GI50,SNB-19,21.9 µM (inactive)
same,GI50,SN12C,44.1 µM (inactive)
same,GI50,SNB-75,24.5 µM (inactive)
same,GI50,DLD-1,27.7 µM (inactive)
same,GI50,SW-620,24.1 µM (inactive)
same,GI50,ACHN,> 46.5 µM (inactive)
same,GI50,SK-MEL-5,41.6 µM (inactive)
same,GI50,TK-10,> 46.5 µM (inactive)
same,GI50,CCRF-CEM,13 µM (inactive)
same,GI50,UACC-62,64.7 µM (inactive)
same,GI50,COLO 205,26.6 µM (inactive)
same,GI50,A549,30.8 µM (inactive)
same,GI50,EKVX,> 100 µM (inactive)
same,GI50,NCI-H23,28.6 µM (inactive)
same,GI50,SF-268,29.9 µM (inactive)
